#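 How tested: cells in 96-well plates exposed to compound for 48 hours at five concentrations. At the GI50, growth is halved.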 Active and inactive are the calls of the source. Rule as the data show it: active = GI50 up to about 1.1 µM and inactive = higher.
# What was measured:
# Test in all cases: NCI tumour cell line growth inhibition, 48 h
# 786-0 = system: 786-0
# A498 = system: A498
# A549 = system: A549
# ACHN = system: ACHN
# CAKI-1 = system: CAKI-1
# CCRF-CEM = system: CCRF-CEM
# COLO 205 = system: COLO 205
# DLD-1 = system: DLD-1
# DMS-114 = system: DMS-114
# DMS-273 = system: DMS-273
# EKVX = system: EKVX
# HCC 2998 = system: HCC 2998
# HCT-116 = system: HCT-116
# HCT-15 = system: HCT-15
# HL-60 = system: HL-60
# HOP-18 = system: HOP-18
# HOP-62 = system: HOP-62
# HT-29 = system: HT-29
# IGROV-1 = system: IGROV-1
# K562 = system: K562
# KM-20L2 = system: KM-20L2
# KM12 = system: KM12
# LOX IMVI = system: LOX IMVI
# LXFL 529 = system: LXFL 529
# M14 = system: M14
# M19-MEL = system: M19-MEL
# MOLT-4 = system: MOLT-4
# Malme-3M = system: Malme-3M
# NCI-H226 = system: NCI-H226
# NCI-H23 = system: NCI-H23
# NCI-H460 = system: NCI-H460
# NCI-H522 = system: NCI-H522
# OVCAR-3 = system: OVCAR-3
# OVCAR-4 = system: OVCAR-4
# OVCAR-5 = system: OVCAR-5
# OVCAR-8 = system: OVCAR-8
# RXF 393 = system: RXF 393
# SF-268 = system: SF-268
# SF-295 = system: SF-295
# SF-539 = system: SF-539
# SK-MEL-28 = system: SK-MEL-28
# SK-MEL-2 = system: SK-MEL-2
# SK-MEL-5 = system: SK-MEL-5
# SK-OV-3 = system: SK-OV-3
# SN12C = system: SN12C
# SNB-19 = system: SNB-19
# SNB-75 = system: SNB-75
# SR = system: SR
# SW-620 = system: SW-620
# TK-10 = system: TK-10
# U-251 = system: U-251
# UACC-257 = system: UACC-257
# UACC-62 = system: UACC-62
# UO-31 = system: UO-31
# XF498 = system: XF498
# HOP-92 = system: HOP-92
# RPMI-8226 = system: RPMI-8226
# SNB-78 = system: SNB-78
compound,measurement,setting,value
C/C(=N/NC(=O)C[N+](C)(C)C)C(CN(C)C)C(=O)Nc1ccccc1 (stereo unspecified),GI50,786-0,> 100 µM (inactive)
same,GI50,A498,> 100 µM (inactive)
same,GI50,A549,> 100 µM (inactive)
same,GI50,ACHN,> 100 µM (inactive)
same,GI50,CAKI-1,> 100 µM (inactive)
same,GI50,CCRF-CEM,> 100 µM (inactive)
same,GI50,COLO 205,> 100 µM (inactive)
same,GI50,DLD-1,> 100 µM (inactive)
same,GI50,DMS-114,> 100 µM (inactive)
same,GI50,DMS-273,> 100 µM (inactive)
same,GI50,EKVX,> 100 µM (inactive)
same,GI50,HCC 2998,96.8 µM (inactive)
same,GI50,HCT-116,> 100 µM (inactive)
same,GI50,HCT-15,> 100 µM
same,GI50,HL-60,> 100 µM (inactive)
same,GI50,HOP-18,> 100 µM (inactive)
same,GI50,HOP-62,> 100 µM (inactive)
same,GI50,HT-29,> 100 µM (inactive)
same,GI50,IGROV-1,> 100 µM (inactive)
same,GI50,K562,> 100 µM (inactive)
same,GI50,KM-20L2,> 100 µM (inactive)
same,GI50,KM12,> 100 µM (inactive)
same,GI50,LOX IMVI,> 100 µM (inactive)
same,GI50,LXFL 529,> 100 µM (inactive)
same,GI50,M14,> 100 µM (inactive)
same,GI50,M19-MEL,> 100 µM (inactive)
same,GI50,MOLT-4,> 100 µM (inactive)
same,GI50,Malme-3M,> 100 µM (inactive)
same,GI50,NCI-H226,> 100 µM (inactive)
same,GI50,NCI-H23,> 100 µM (inactive)
same,GI50,NCI-H460,> 100 µM (inactive)
same,GI50,NCI-H522,> 100 µM (inactive)
same,GI50,OVCAR-3,> 100 µM (inactive)
same,GI50,OVCAR-4,> 100 µM (inactive)
same,GI50,OVCAR-5,> 100 µM (inactive)
same,GI50,OVCAR-8,> 100 µM (inactive)
same,GI50,RXF 393,> 100 µM (inactive)
same,GI50,SF-268,> 100 µM (inactive)
same,GI50,SF-295,> 100 µM (inactive)
same,GI50,SF-539,> 100 µM (inactive)
same,GI50,SK-MEL-28,> 100 µM (inactive)
same,GI50,SK-MEL-2,> 100 µM (inactive)
same,GI50,SK-MEL-5,> 100 µM (inactive)
same,GI50,SK-OV-3,> 100 µM (inactive)
same,GI50,SN12C,> 100 µM (inactive)
same,GI50,SNB-19,> 100 µM (inactive)
same,GI50,SNB-75,> 100 µM (inactive)
same,GI50,SR,> 100 µM (inactive)
same,GI50,SW-620,> 100 µM (inactive)
same,GI50,TK-10,> 100 µM (inactive)
same,GI50,U-251,> 100 µM (inactive)
same,GI50,UACC-257,> 100 µM (inactive)
same,GI50,UACC-62,> 100 µM (inactive)
same,GI50,UO-31,> 100 µM (inactive)
same,GI50,XF498,> 100 µM (inactive)
CC(C)C(/C=C/c1ccccc1)=N\NC(=O)N/N=C(/C=C/c1ccccc1)C(C)C,GI50,786-0,18.9 µM (inactive)
same,GI50,A549,23.1 µM (inactive)
same,GI50,ACHN,26.9 µM (inactive)
same,GI50,CAKI-1,6.98 µM (inactive)
same,GI50,CCRF-CEM,28.2 µM (inactive)
same,GI50,COLO 205,18.4 µM (inactive)
same,GI50,DLD-1,34.8 µM (inactive)
same,GI50,DMS-114,13 µM (inactive)
same,GI50,DMS-273,19.8 µM (inactive)
same,GI50,EKVX,8.36 µM (inactive)
same,GI50,HCC 2998,16 µM (inactive)
same,GI50,HCT-116,19.1 µM (inactive)
same,GI50,HCT-15,20.7 µM
same,GI50,HL-60,15.2 µM (inactive)
same,GI50,HOP-62,40.6 µM (inactive)
same,GI50,HOP-92,20.7 µM (inactive)
same,GI50,HT-29,26.5 µM (inactive)
same,GI50,IGROV-1,39.1 µM (inactive)
same,GI50,K562,21.2 µM (inactive)
same,GI50,KM-20L2,22.5 µM (inactive)
same,GI50,KM12,36.3 µM (inactive)
same,GI50,LOX IMVI,32.4 µM (inactive)
same,GI50,LXFL 529,23.2 µM (inactive)
same,GI50,M14,39.4 µM (inactive)
same,GI50,M19-MEL,21 µM (inactive)
same,GI50,MOLT-4,16.4 µM (inactive)
same,GI50,NCI-H226,18.2 µM (inactive)
same,GI50,NCI-H23,53.7 µM (inactive)
same,GI50,NCI-H460,14.4 µM (inactive)
same,GI50,NCI-H522,17.1 µM (inactive)
same,GI50,OVCAR-4,35 µM (inactive)
same,GI50,OVCAR-5,38.2 µM (inactive)
same,GI50,OVCAR-8,28.8 µM (inactive)
same,GI50,RPMI-8226,24.3 µM (inactive)
same,GI50,SF-268,48 µM (inactive)
same,GI50,SF-295,39.9 µM (inactive)
same,GI50,SF-539,31.1 µM (inactive)
same,GI50,SK-MEL-28,74 µM (inactive)
same,GI50,SK-MEL-2,19.9 µM (inactive)
same,GI50,SK-MEL-5,21.7 µM (inactive)
same,GI50,SK-OV-3,40.2 µM (inactive)
same,GI50,SN12C,17.3 µM (inactive)
same,GI50,SNB-19,37.7 µM (inactive)
same,GI50,SNB-75,25.8 µM (inactive)
same,GI50,SNB-78,28.1 µM (inactive)
same,GI50,SR,20.8 µM (inactive)
same,GI50,SW-620,37 µM (inactive)
same,GI50,TK-10,33.8 µM (inactive)
same,GI50,U-251,32.3 µM (inactive)
same,GI50,UACC-257,44 µM (inactive)
same,GI50,UACC-62,56.9 µM (inactive)
same,GI50,UO-31,14.7 µM (inactive)
same,GI50,XF498,26.4 µM (inactive)
CN1OC(CO)CC12C1CC3CC(C1)CC2C3 (stereo unspecified),GI50,786-0,> 100 µM (inactive)
same,GI50,A498,> 100 µM (inactive)
same,GI50,A549,> 100 µM (inactive)
same,GI50,ACHN,> 100 µM (inactive)
same,GI50,CAKI-1,> 100 µM (inactive)
same,GI50,CCRF-CEM,> 100 µM (inactive)
same,GI50,COLO 205,> 100 µM (inactive)
same,GI50,DLD-1,> 100 µM (inactive)
same,GI50,DMS-114,> 100 µM (inactive)
same,GI50,DMS-273,> 100 µM (inactive)
same,GI50,HCC 2998,> 100 µM (inactive)
same,GI50,HCT-116,> 100 µM (inactive)
same,GI50,HCT-15,> 100 µM
same,GI50,HL-60,> 100 µM (inactive)
same,GI50,HOP-18,> 100 µM (inactive)
same,GI50,HOP-62,> 100 µM (inactive)
same,GI50,HOP-92,> 100 µM (inactive)
same,GI50,HT-29,> 100 µM (inactive)
same,GI50,IGROV-1,> 100 µM (inactive)
same,GI50,K562,> 100 µM (inactive)
same,GI50,KM-20L2,> 100 µM (inactive)
same,GI50,KM12,> 100 µM (inactive)
same,GI50,LOX IMVI,> 100 µM (inactive)
same,GI50,LXFL 529,> 100 µM (inactive)
same,GI50,M14,> 100 µM (inactive)
same,GI50,M19-MEL,> 100 µM (inactive)
same,GI50,MOLT-4,> 100 µM (inactive)
same,GI50,Malme-3M,> 100 µM (inactive)
same,GI50,NCI-H23,> 100 µM (inactive)
same,GI50,NCI-H460,> 100 µM (inactive)
same,GI50,NCI-H522,> 100 µM (inactive)
same,GI50,OVCAR-3,> 100 µM (inactive)
same,GI50,OVCAR-4,> 100 µM (inactive)
same,GI50,OVCAR-5,> 100 µM (inactive)
same,GI50,OVCAR-8,> 100 µM (inactive)
same,GI50,RPMI-8226,> 100 µM (inactive)
same,GI50,RXF 393,> 100 µM (inactive)
same,GI50,SF-268,> 100 µM (inactive)
same,GI50,SF-295,> 100 µM (inactive)
same,GI50,SF-539,> 100 µM (inactive)
same,GI50,SK-MEL-28,> 100 µM (inactive)
same,GI50,SK-MEL-2,> 100 µM (inactive)
same,GI50,SK-MEL-5,> 100 µM (inactive)
same,GI50,SK-OV-3,> 100 µM (inactive)
same,GI50,SN12C,> 100 µM (inactive)
same,GI50,SNB-19,> 100 µM (inactive)
same,GI50,SNB-75,> 100 µM (inactive)
same,GI50,SR,> 100 µM (inactive)
same,GI50,SW-620,> 100 µM (inactive)
same,GI50,TK-10,> 100 µM (inactive)
same,GI50,U-251,> 100 µM (inactive)
same,GI50,UACC-62,> 100 µM (inactive)
same,GI50,UO-31,> 100 µM (inactive)
